Experimental data from patent US11691980B2, “Liphagal analog and multi-targeted kinase inhibitor containing liphagal or analog thereof” (TOHOKU UNIVERSITY, priority 2017, dated 2023).

Key:
Format in all cases: biochemical
RSK2 = biological target: T1, RSK2 (Homo sapiens, UniProt P51812); test: mobility shift assay
T1 construct: purchased Carna Biosciences

MAPKAPK5 = biological target: T2, MAPKAPK5 (Homo sapiens, UniProt Q8IW41); test: mobility shift assay
T2 construct: purchased Carna Biosciences

EGFR(L861Q) = biological target: T3, EGFR(L861Q) (Homo sapiens, UniProt P00533, L861Q); test: mobility shift assay
T3 construct: purchased Carna Biosciences
T3 sequence (P00533 25-1210 L861Q): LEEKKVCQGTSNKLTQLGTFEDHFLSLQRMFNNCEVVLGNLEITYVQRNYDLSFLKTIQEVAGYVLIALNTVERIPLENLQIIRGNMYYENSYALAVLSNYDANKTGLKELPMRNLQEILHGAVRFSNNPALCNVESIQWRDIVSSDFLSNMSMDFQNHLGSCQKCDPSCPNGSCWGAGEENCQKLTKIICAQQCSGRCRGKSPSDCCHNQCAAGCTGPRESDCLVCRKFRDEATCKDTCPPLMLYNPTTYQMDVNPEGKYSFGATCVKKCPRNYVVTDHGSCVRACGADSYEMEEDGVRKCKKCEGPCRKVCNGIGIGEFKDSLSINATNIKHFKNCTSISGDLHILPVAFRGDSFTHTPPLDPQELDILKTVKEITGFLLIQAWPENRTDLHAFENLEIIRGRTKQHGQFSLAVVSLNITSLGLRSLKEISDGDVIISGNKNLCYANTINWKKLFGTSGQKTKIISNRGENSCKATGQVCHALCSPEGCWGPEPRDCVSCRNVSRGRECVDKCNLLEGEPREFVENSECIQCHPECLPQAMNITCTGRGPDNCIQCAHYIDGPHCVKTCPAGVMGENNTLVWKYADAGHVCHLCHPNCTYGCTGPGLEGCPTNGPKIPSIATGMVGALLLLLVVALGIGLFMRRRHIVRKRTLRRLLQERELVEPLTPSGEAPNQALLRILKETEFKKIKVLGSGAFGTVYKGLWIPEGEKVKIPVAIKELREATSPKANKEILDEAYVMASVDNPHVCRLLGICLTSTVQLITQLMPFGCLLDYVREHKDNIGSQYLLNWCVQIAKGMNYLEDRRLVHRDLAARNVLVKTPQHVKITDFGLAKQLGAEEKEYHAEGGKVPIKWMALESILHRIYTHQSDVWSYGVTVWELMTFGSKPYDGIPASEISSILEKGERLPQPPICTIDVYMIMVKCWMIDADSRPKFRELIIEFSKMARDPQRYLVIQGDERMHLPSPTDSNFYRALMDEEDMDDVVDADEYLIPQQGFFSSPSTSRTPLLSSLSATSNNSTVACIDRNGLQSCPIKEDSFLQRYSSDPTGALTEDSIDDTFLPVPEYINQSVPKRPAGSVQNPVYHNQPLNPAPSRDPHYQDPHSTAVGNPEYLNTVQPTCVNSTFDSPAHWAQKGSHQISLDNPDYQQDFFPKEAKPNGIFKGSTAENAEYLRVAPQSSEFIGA

MET(Y1235D) = biological target: T4, MET(Y1235D) (Homo sapiens, UniProt P08581, Y1235D); test: mobility shift assay
T4 construct: purchased Carna Biosciences

PKD2 = biological target: T5, PKD2 (Homo sapiens, UniProt Q9BZL6); test: mobility shift assay
T5 construct: purchased Carna Biosciences

HPK3 = biological target: T6, HPK3 (Homo sapiens, UniProt Q9H422); test: mobility shift assay
T6 construct: purchased Carna Biosciences

TAOK2 = biological target: T7, TAOK2 (Homo sapiens, UniProt Q9UL54); test: mobility shift assay
T7 construct: purchased Carna Biosciences
T7 sequence (Q9UL54 whole entry): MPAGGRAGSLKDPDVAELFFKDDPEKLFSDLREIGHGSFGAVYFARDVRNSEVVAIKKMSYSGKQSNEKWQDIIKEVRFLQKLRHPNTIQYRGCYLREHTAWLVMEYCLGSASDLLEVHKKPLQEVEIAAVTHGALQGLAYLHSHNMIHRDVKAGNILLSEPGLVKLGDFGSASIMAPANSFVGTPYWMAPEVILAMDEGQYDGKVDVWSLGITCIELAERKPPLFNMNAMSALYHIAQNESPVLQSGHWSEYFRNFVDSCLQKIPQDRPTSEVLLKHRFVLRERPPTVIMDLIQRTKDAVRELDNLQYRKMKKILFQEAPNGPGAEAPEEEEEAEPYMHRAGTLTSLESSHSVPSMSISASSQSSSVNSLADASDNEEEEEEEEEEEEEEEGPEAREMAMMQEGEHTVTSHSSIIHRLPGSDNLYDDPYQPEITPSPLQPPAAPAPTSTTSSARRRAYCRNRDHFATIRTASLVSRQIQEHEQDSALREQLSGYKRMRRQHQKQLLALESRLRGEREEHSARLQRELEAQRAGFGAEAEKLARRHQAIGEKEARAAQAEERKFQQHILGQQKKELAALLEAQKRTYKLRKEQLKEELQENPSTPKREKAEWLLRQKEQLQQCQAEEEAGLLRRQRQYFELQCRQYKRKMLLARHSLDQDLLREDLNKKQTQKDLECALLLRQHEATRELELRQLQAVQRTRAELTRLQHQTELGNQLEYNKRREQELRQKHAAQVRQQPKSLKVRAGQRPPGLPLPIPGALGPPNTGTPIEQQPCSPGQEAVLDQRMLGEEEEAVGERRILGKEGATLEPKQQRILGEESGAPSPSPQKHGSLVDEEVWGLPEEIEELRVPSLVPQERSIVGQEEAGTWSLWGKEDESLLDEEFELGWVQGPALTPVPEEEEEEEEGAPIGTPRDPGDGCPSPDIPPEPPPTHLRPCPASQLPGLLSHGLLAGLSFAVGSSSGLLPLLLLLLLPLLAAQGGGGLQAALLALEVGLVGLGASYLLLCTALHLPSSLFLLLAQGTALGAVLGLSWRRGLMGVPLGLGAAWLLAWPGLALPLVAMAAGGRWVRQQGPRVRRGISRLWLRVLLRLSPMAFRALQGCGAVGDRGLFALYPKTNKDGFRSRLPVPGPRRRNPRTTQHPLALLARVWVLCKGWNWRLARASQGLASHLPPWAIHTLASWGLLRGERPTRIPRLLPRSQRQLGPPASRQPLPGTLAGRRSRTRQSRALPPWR

NEK9 = biological target: T8, NEK9 (Homo sapiens, UniProt Q8TD19); test: mobility shift assay
T8 construct: purchased Carna Biosciences

CDK3/CycE1 = biological target: T9, CDK3/CycE1 (Homo sapiens, UniProt Q00526); test: mobility shift assay
T9 construct: purchased Carna Biosciences

PKCζ = biological target: T10, PKCζ (Homo sapiens, UniProt Q05513); test: mobility shift assay
T10 construct: purchased Carna Biosciences

JNK1 = biological target: T11, JNK1 (Homo sapiens, UniProt P45983); test: mobility shift assay
T11 construct: purchased Carna Biosciences

DYRK1B = biological target: T12, DYRK1B (Homo sapiens, UniProt Q9Y463); test: mobility shift assay
T12 construct: purchased Carna Biosciences

FGR = biological target: T13, FGR (Homo sapiens, UniProt P09769); test: mobility shift assay
T13 construct: purchased Carna Biosciences

M88K1 = biological target: T14, M88K1 (Homo sapiens, UniProt Q9UPE1); test: mobility shift assay
T14 construct: purchased Carna Biosciences

PKCl = biological target: T15, PKCl (Homo sapiens, UniProt P41743); test: mobility shift assay
T15 construct: purchased Carna Biosciences

PDHK2 = biological target: T16, PDHK2 (Homo sapiens, UniProt Q15119); test: mobility shift assay
T16 construct: purchased Carna Biosciences

CK1y3 = biological target: T17, CK1y3 (Homo sapiens, UniProt Q9Y6M4); test: mobility shift assay
T17 construct: purchased Carna Biosciences

BLK = biological target: T18, BLK (Homo sapiens, UniProt P51451); test: mobility shift assay
T18 construct: purchased Carna Biosciences

YES = biological target: T19, YES (Homo sapiens, UniProt P07947); test: mobility shift assay
T19 construct: purchased Carna Biosciences
T19 sequence (P07947 whole entry): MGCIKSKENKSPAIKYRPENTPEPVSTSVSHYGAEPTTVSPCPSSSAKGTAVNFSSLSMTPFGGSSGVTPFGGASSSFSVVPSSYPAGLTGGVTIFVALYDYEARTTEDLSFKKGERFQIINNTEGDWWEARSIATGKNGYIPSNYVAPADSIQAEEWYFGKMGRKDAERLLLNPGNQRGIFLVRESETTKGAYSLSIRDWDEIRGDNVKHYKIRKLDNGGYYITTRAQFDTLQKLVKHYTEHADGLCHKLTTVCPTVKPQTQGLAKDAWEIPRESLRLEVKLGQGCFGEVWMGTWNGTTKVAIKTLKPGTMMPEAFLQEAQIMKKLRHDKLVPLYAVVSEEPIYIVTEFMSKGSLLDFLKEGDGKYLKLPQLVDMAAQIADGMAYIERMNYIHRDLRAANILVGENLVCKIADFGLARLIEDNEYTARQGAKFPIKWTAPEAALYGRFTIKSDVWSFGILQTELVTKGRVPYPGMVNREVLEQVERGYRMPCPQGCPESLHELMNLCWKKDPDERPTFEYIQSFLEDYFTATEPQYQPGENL

CDC2/CycB1 = biological target: T20, CDC2/CycB1 (Homo sapiens, UniProt P06493); test: mobility shift assay
T20 construct: purchased Carna Biosciences

MELK = biological target: T21, MELK (Homo sapiens, UniProt Q14680); test: mobility shift assay
T21 construct: purchased Carna Biosciences

PKCε = biological target: T22, PKCε (Homo sapiens, UniProt Q02156); test: mobility shift assay
T22 construct: purchased Carna Biosciences

MNK2 = biological target: T23, MNK2 (Homo sapiens, UniProt Q9HBH9); test: mobility shift assay
T23 construct: purchased Carna Biosciences

EFHB2 = biological target: T24, EFHB2 (Homo sapiens, UniProt P29323); test: mobility shift assay
T24 construct: purchased Carna Biosciences

CHK2 = biological target: T25, CHK2 (Homo sapiens, UniProt O96017); test: mobility shift assay
T25 construct: purchased Carna Biosciences

PKN1 = biological target: T26, PKN1 (Homo sapiens, UniProt Q16512); test: IMAP Assay
T26 construct: purchased Carna Biosciences

AKT2 = biological target: T27, AKT2 (Homo sapiens, UniProt P31751); test: mobility shift assay
T27 construct: purchased Carna Biosciences

RAK4 = biological target: T28, RAK4 (Homo sapiens, UniProt Q9NWZ3); test: mobility shift assay
T28 construct: purchased Carna Biosciences

DDR1 = biological target: T29, DDR1 (Homo sapiens, UniProt Q08345); test: mobility shift assay
T29 construct: purchased Carna Biosciences

EGFR(T790/L858R) = biological target: T30, EGFR(T790/L858R) (Homo sapiens, UniProt P00533, L858R/T790M); test: mobility shift assay
T30 construct: purchased Carna Biosciences

PIM 1 = biological target: T31, PIM 1 (Homo sapiens, UniProt P11309); test: mobility shift assay
T31 construct: purchased Carna Biosciences

FYN(isoform a) = biological target: T32, FYN(isoform a) (Homo sapiens, UniProt P06241); test: mobility shift assay
T32 construct: purchased Carna Biosciences

AMFKα2/β1/γ1 = biological target: T33, AMFKα2/β1/γ1 (Homo sapiens, UniProt P54646); test: mobility shift assay
T33 construct: purchased Carna Biosciences

CaMK2β = biological target: T34, CaMK2β (Homo sapiens, UniProt Q13554); test: mobility shift assay
T34 construct: purchased Carna Biosciences

ROS = biological target: T35, ROS (Homo sapiens, UniProt P08922); test: mobility shift assay
T35 construct: purchased Carna Biosciences

ALK = biological target: T36, ALK (Homo sapiens, UniProt Q9UM73); test: mobility shift assay
T36 construct: purchased Carna Biosciences

AXL = biological target: T37, AXL (Homo sapiens, UniProt P30530); test: mobility shift assay
T37 construct: purchased Carna Biosciences

TAK1-TAB1_Cascade = biological target: T38, TAK1-TAB1_Cascade (Homo sapiens, UniProt O43318); test: mobility shift assay
T38 construct: purchased Carna Biosciences

KKε = biological target: T39, KKε (Homo sapiens, UniProt Q14164); test: mobility shift assay
T39 construct: purchased Carna Biosciences

LATS2 = biological target: T40, LATS2 (Homo sapiens, UniProt Q9NRM7); test: mobility shift assay
T40 construct: purchased Carna Biosciences
T40 sequence (Q9NRM7 whole entry): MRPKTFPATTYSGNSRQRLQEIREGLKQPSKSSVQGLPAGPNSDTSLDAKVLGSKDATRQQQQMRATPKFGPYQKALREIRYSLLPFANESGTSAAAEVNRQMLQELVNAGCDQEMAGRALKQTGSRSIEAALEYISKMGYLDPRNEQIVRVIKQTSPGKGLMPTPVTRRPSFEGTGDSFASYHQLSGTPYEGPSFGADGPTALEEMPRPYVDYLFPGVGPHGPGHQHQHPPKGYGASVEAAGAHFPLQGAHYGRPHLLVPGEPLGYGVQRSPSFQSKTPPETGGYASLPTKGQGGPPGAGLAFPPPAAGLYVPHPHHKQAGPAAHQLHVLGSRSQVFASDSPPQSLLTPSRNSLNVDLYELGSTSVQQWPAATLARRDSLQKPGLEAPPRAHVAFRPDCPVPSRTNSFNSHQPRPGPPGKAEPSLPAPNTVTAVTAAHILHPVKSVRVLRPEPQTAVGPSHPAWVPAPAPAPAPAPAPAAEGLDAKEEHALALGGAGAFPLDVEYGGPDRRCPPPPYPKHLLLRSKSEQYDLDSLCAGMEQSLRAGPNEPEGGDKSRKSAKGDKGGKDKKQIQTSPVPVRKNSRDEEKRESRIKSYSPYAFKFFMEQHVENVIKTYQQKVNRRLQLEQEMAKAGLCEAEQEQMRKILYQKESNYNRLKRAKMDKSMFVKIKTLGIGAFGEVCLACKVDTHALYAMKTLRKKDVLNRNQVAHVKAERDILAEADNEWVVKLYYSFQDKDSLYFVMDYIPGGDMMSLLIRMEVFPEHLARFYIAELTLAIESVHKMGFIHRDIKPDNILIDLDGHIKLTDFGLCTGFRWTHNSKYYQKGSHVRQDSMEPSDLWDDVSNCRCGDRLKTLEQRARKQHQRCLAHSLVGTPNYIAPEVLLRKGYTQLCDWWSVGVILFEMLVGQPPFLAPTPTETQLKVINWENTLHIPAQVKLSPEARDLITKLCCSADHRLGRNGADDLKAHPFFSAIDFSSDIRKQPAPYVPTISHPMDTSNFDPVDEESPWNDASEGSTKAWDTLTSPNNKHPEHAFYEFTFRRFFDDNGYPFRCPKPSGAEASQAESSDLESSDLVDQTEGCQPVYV

Haspin = biological target: T41, Haspin (Homo sapiens, UniProt Q8TF76); test: mobility shift assay
T41 construct: purchased Carna Biosciences

PDGFRα = biological target: T42, PDGFRα (Homo sapiens, UniProt P16234); test: mobility shift assay
T42 construct: purchased Carna Biosciences
T42 sequence (P16234 24-1089): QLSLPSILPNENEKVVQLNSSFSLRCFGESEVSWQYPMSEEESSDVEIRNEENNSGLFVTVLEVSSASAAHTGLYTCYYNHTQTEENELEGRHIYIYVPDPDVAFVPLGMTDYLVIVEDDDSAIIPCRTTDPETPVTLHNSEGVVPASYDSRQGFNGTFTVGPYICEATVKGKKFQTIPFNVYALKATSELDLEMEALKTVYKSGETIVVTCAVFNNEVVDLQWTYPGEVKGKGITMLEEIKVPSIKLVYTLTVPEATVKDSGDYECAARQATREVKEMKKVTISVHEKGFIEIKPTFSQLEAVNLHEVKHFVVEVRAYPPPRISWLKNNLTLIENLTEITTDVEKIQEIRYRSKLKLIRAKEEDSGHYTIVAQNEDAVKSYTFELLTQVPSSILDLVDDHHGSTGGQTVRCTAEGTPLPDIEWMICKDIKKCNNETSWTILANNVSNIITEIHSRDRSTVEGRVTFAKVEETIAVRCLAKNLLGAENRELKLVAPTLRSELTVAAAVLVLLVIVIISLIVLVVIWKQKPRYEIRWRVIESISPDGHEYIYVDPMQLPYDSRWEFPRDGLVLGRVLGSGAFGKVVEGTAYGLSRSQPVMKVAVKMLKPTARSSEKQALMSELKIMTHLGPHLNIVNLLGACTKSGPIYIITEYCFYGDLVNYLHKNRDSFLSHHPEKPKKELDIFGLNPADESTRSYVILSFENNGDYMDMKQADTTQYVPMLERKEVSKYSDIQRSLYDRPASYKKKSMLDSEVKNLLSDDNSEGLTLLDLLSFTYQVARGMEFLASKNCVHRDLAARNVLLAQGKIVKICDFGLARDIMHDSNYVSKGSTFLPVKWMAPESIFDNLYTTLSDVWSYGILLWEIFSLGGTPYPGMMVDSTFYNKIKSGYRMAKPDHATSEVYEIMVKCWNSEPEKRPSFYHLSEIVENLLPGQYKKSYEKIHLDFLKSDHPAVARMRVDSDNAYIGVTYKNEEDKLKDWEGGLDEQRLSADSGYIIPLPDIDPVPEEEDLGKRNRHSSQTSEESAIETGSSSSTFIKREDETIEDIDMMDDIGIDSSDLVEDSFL

For `C[C@@H]1CC[C@H]2C(C)(C)CCC[C@]2(C)c2c1oc1c(C=O)c(O)c(O)cc21` [LG-1, liphagal], the inhibition at 10 µM (RSK2) was 14.5%, the inhibition at 10 µM (MAPKAPK5) was 4.8% and the inhibition at 10 µM (EGFR(L861Q)) was 1.5%. The inhibition at 10 µM (MET(Y1235D)) was 5%, the inhibition at 10 µM (PKD2) was 2.8% and the inhibition at 10 µM (HPK3) was 20.5%. For the same compound, the inhibition at 10 µM (TAOK2) was 24.5%, the inhibition at 10 µM (NEK9) was 27.3% and the inhibition at 10 µM (CDK3/CycE1) was 40.1%. The inhibition at 10 µM (PKCζ) was -7.2%, the inhibition at 10 µM (JNK1) was -10.8% and the inhibition at 10 µM (DYRK1B) was 21.8%. For the same compound, the inhibition at 10 µM (FGR) was 9.3%, the inhibition at 10 µM (M88K1) was 9.3% and the inhibition at 10 µM (PKCl) was 12.3%. It also gave an inhibition at 10 µM (PDHK2) of 47.2%, an inhibition at 10 µM (CK1y3) of 3% and an inhibition at 10 µM (BLK) of 29.4%. It also gave an inhibition at 10 µM (YES) of 0.7%, an inhibition at 10 µM (CDC2/CycB1) of 33.7% and an inhibition at 10 µM (MELK) of 49.2%. It also gave an inhibition at 10 µM (PKCε) of -46.9%, an inhibition at 10 µM (MNK2) of 5.9% and an inhibition at 10 µM (EFHB2) of 5.4%. It also gave an inhibition at 10 µM (CHK2) of 26.5%, an inhibition at 10 µM (PKN1) of 5.3% and an inhibition at 10 µM (AKT2) of 6.2%. For the same compound, the inhibition at 10 µM (RAK4) was -2.8%, the inhibition at 10 µM (DDR1) was 60.5% and the inhibition at 10 µM (EGFR(T790/L858R)) was -2.2%. The inhibition at 10 µM (PIM 1) was 50.3%, the inhibition at 10 µM (FYN(isoform a)) was 0.5% and the inhibition at 10 µM (AMFKα2/β1/γ1) was 44.1%. The inhibition at 10 µM (CaMK2β) was 1.9%, the inhibition at 10 µM (ROS) was 8.6% and the inhibition at 10 µM (ALK) was 9%. For the same compound, the inhibition at 10 µM (AXL) was -4.2%, the inhibition at 10 µM (TAK1-TAB1_Cascade) was 13.9% and the inhibition at 10 µM (KKε) was -6.3%. The inhibition at 10 µM (LATS2) was -0.6%, the inhibition at 10 µM (Haspin) was 3.3% and the inhibition at 10 µM (PDGFRα) was 8.2%.
